# Assay results reported in US6780885B1, “Formulations and methods for administration of pharmacologically or biologically active compounds” (IDEXX Laboratories, Inc., priority 2000, dated 2004).
# How the values were obtained:
# cecal worms (Heterakis) = test: ivermectin formulation in the drinking water of turkeys, cecal worms; format: in vivo; details: in three days
# Method: (§1) The 2% ivermectin solution is diluted 20-fold to 0.1% in water. From the 0.1%, 3.4 ml is dissolved in 5 liters (QS) of water. The dose to be administered in order to obtain effective treatment of various parasites depends on the size of the fowl to be treated (i.e., their drinking capacity). A 4.5 kg turkey will typically drink 600-1000 ml of water every 24 hours. This corresponds to a dose of 100-150 μgm/kg/day. […] The effective dose to administer to any other type of animal to treat a particular type of parasite can be easily determined by simply varying the dosage until arriving at an effective dose.
# roundworms (Ascaridia) = test: ivermectin formulation in the drinking water of turkeys, roundworm infestation; format: in vivo; details: in three days
# Method: as §1
# A non-aqueous, stable formulation of ivermectin was prepared and diluted into the drinking water of market male turkeys as described above. […] The birds were treated at levels of 10, 50, 100, 200, 250, 500, 1200, and 1400 mg/kg of body weight/day. […] The formulation was effective at completely eliminating any visible signs of roundworm infestation at levels down to […] body weight/day in three days.
substance,measurement,setting,value
ivermectin,dose effective to completely eliminate cecal worms (Heterakis),cecal worms (Heterakis); in drinking water,200 mg ivermectin/kg body weight/day
same,elimination of cecal worms,cecal worms (Heterakis); formulation in drinking water,complete elimination
same,dose effective to completely eliminate roundworms (Ascaridia),roundworms (Ascaridia); in drinking water,200 mg ivermectin/kg body weight/day
same,elimination of roundworms,roundworms (Ascaridia); formulation in drinking water,complete elimination
